Like-named read-outs stand apart in the source and are kept apart here. Positions of bridges follow the written chain, without caps; N, C: chain ends. Residues, ends and D or L forms follow the SMILES beside them. *: point of attachment. X1 = O=C(CON=C[C@H](O)[C@H](O)[C@H](O)CF)*; AEEA = NCCOCCOCC(=O)O
Tests used:
[1] = Ex vivo gamma counting biodistribution in control mice; settings: mouse, total radioactivity, C57BL/6N control mice (n = 13), 25 min after injection, mean ± SD
Protocol: Six-month-old atherosclerotic low-density lipoprotein receptor-deficient mice (weight, 27 ± 4.1 g; n = 19) expressing only apolipoprotein B100 (LDLR^−/−ApoB^100/100, strain #003000; Jackson Laboratory, Bar Harbor, ME, USA) were fed for 4 months with a Western-type diet. Two-month-old C57BL/6N mice (weight, 24 ± 2.2 g; n = 13) fed with a regular chow served as controls.
In PET studies, mice (19 atherosclerotic, 13 controls) were injected with 14 ± 4.4 MBq of ^18F-FDR-Siglec-9. Twenty-five minutes after ^18F-FDR-Siglec-9 injection, blood was drawn by cardiac puncture and the animals were killed. The thoracic aorta was excised and rinsed in saline to remove the blood. In addition, various other tissues were excised and patted dry. Samples of blood and urine were collected, and blood plasma was separated by centrifugation. […] The results were expressed as % ID/g and target-to-background ratio.

[2] = Human radiation dosimetry extrapolated from rat PET data (OLINDA/EXM); settings: mean ± SD
Protocol: Absorbed doses of ^68Ga-DOTA-Siglec-9 and ^18F-FDR-Siglec-9 were calculated with the OLINDA/EXM version 1.0 software (organ level internal dose assessment and exponential modeling; Vanderbilt University, Nashville, TN, USA), which applies the MIRD schema (developed by the Medical Internal Radiation Dose committee of the Society of Nuclear Medicine) for radiation dose calculations in internal exposure. The software includes radionuclide information and selection of human body phantoms. The residence times derived from the rat data were integrated as the area under the time-activity curve. The residence times were converted into corresponding human values by multiplication with a factor to scale the organ and body weights: (WBody,rat/WOrgan,rat)×(WOrgan,human/WBody,human), where WBody,rat and WBody,human are the body weights of rat and human (a 70-kg male), respectively; and WOrgan,rat and WOrgan,human are the organ weights of rat and human (organ weights for a 70 kg male), respectively [14].

[3] = extrapolated from the rat PET data, OLINDA/EXM, 70 kg male
[4] = source organ, extrapolated from the rat PET data to 70 kg male

Compound `CC(C)C[C@@H]1NC(=O)CNC(=O)[C@H](CCCNC(=N)N)NC(=O)[C@H](Cc2c[nH]c3ccccc23)NC(=O)[C@H](CO)NC(=O)[C@H](CC(C)C)NC(=O)[C@H](CO)NC(=O)[C@H](CC(C)C)NC(=O)[C@H](CCCNC(=N)N)NC(=O)[C@H](C)NC(=O)[C@@H](NC(=O)COCCOCCNC(=O)CON=C[C@H](O)[C@H](O)[C@H](O)CF)CSSC[C@@H](C(=O)N2CCC[C@H]2C(=O)N[C@@H](CO)C(=O)N[C@@H](CCCCN)C(=O)O)NC(=O)[C@H](CC(C)C)NC(=O)[C@H]([C@@H](C)O)NC1=O` [^18F-FDR-Siglec-9] ({X1-AEEA}-CARLSLSWRGLTLCPSK-OH; disulfide 1-14; N-terminus and C-terminus assumed) has a tissue uptake at 25 min ([1]; adipose tissue, BAT, 14 MBq, read-out: Ex vivo biodistribution, Adipose tissue, BAT) of 0.45 ± 0.13 %ID/g, a tissue uptake at 25 min ([1]; adipose tissue, WAT, 14 MBq, read-out: Ex vivo biodistribution, Adipose tissue, WAT) of 0.63 ± 0.37 %ID/g and a tissue uptake at 25 min ([1]; aorta, 14 MBq, read-out: Ex vivo biodistribution, Aorta) of 0.52 ± 0.23 %ID/g. For the same compound, the tissue uptake at 25 min ([1]; blood, 14 MBq, read-out: Ex vivo biodistribution, Blood) was 2.1 ± 0.59 %ID/g, the tissue uptake at 25 min ([1]; brain, 14 MBq, read-out: Ex vivo biodistribution, Brain) was 0.11 ± 0.048 %ID/g and the tissue uptake at 25 min ([1]; heart, 14 MBq, read-out: Ex vivo biodistribution, Heart) was 0.34 ± 0.082 %ID/g. The tissue uptake at 25 min ([1]; kidney, 14 MBq, read-out: Ex vivo biodistribution, Kidney) was 43 ± 25 %ID/g, the tissue uptake at 25 min ([1]; liver, read-out: Ex vivo biodistribution, Liver) was 3.5 ± 2.3 %ID/g and the tissue uptake at 25 min ([1]; lungs, read-out: Ex vivo biodistribution, Lungs) was 1.5 ± 0.45 %ID/g. The tissue uptake at 25 min ([1]; muscle, read-out: Ex vivo biodistribution, Muscle) was 0.43 ± 0.13 %ID/g, the tissue uptake at 25 min ([1]; pancreas, read-out: Ex vivo biodistribution, Pancreas) was 0.57 ± 0.18 %ID/g and the tissue uptake at 25 min ([1]; plasma, read-out: Ex vivo biodistribution, Plasma) was 3.8 ± 0.62 %ID/g. The tissue uptake at 25 min ([1]; small intestine, read-out: Ex vivo biodistribution, Small intestine) was 0.79 ± 0.29 %ID/g, the tissue uptake at 25 min ([1]; spleen, read-out: Ex vivo biodistribution, Spleen) was 0.62 ± 0.32 %ID/g and the tissue uptake at 25 min ([1]; thymus, 14 MBq, read-out: Ex vivo biodistribution, Thymus) was 0.43 ± 0.089 %ID/g. The excreta dose per gram or mL at 25 min ([1]; urine, 14 MBq) was 610 ± 340 %ID/g, the “Normalized number of disintegrations, Total body” value ([2]; extrapolated from the rat PET data to 70 kg male) was 1.8 ± 0.32 h and the “Human dose equivalent estimate, Adrenals” value [2, 3] was 0.020 ± 0.0029 mSv/MBq. For the same compound, the “Human dose equivalent estimate, Brain” value [2, 3] was 0.010 ± 0.0018 mSv/MBq, the “Human dose equivalent estimate, Breasts” value [2, 3] was 0.0086 ± 0.0011 mSv/MBq and the “Human dose equivalent estimate, Gallbladder wall” value [2, 3] was 0.017 ± 0.0014 mSv/MBq. For the same compound, the “Human dose equivalent estimate, Heart wall” value [2, 3] was 0.0085 ± 0.00045 mSv/MBq, the “Human dose equivalent estimate, Kidneys” value [2, 3] was 0.29 ± 0.13 mSv/MBq and the “Human dose equivalent estimate, Liver” value [2, 3] was 0.021 ± 0.0061 mSv/MBq. The “Human dose equivalent estimate, Lower large intestine wall” value [2, 3] was 0.014 ± 0.00091 mSv/MBq, the “Human dose equivalent estimate, Lungs” value [2, 3] was 0.0062 ± 0.00016 mSv/MBq and the “Human dose equivalent estimate, Muscle” value [2, 3] was 0.0074 ± 0.00025 mSv/MBq. For the same compound, the “Human dose equivalent estimate, Osteogenic cells” value [2, 3] was 0.016 ± 0.0019 mSv/MBq, the “Human dose equivalent estimate, Ovaries” value [2, 3] was 0.014 ± 0.00083 mSv/MBq and the “Human dose equivalent estimate, Pancreas” value [2, 3] was 0.018 ± 0.0015 mSv/MBq. For the same compound, the “Human dose equivalent estimate, Red marrow” value [2, 3] was 0.012 ± 0.00032 mSv/MBq, the “Human dose equivalent estimate, Skin” value [2, 3] was 0.0080 ± 0.0008 mSv/MBq and the “Human dose equivalent estimate, Small intestine” value [2, 3] was 0.015 ± 0.00049 mSv/MBq. For the same compound, the “Human dose equivalent estimate, Spleen” value [2, 3] was 0.018 ± 0.0022 mSv/MBq, the “Human dose equivalent estimate, Stomach wall” value [2, 3] was 0.014 ± 0.00041 mSv/MBq and the “Human dose equivalent estimate, Testes” value [2, 3] was 0.010 ± 0.0010 mSv/MBq. For the same compound, the “Human dose equivalent estimate, Thymus” value [2, 3] was 0.010 ± 0.0013 mSv/MBq, the “Human dose equivalent estimate, Thyroid” value [2, 3] was 0.0094 ± 0.0014 mSv/MBq and the “Human dose equivalent estimate, Total body” value [2, 3] was 0.012 ± 0.00012 mSv/MBq. For the same compound, the “Human dose equivalent estimate, Upper large intestine wall” value [2, 3] was 0.015 ± 0.00045 mSv/MBq, the “Human dose equivalent estimate, Urinary bladder wall” value [2, 3] was 0.081 ± 0.032 mSv/MBq and the “Human dose equivalent estimate, Uterus” value [2, 3] was 0.017 ± 0.0012 mSv/MBq. For the same compound, the “Human effective dose estimate” value ([2]; extrapolated from the rat PET data, OLINDA/EXM, 70 kg man) was 0.022 ± 0.0042 mSv/MBq, the “Normalized number of disintegrations, Heart wall” value [2, 4] was 0.0026 ± 0.0010 h and the “Normalized number of disintegrations, Kidneys” value [2, 4] was 0.47 ± 0.21 h. The “Normalized number of disintegrations, Liver” value [2, 4] was 0.11 ± 0.043 h, the “Normalized number of disintegrations, Lungs” value [2, 4] was 0.0029 ± 0.0011 h and the “Normalized number of disintegrations, Muscle” value [2, 4] was 0.081 ± 0.042 h. For the same compound, the “Normalized number of disintegrations, Urinary bladder wall” value [2, 4] was 0.15 ± 0.070 h.

Source: article PMC5804415, “Comparison of ^68Ga-DOTA-Siglec-9 and ^18F-Fluorodeoxyribose-Siglec-9: Inflammation Imaging and Radiation Dosimetry” (Contrast Media & Molecular Imaging, 2017)
